The nature of series [1]: Cytotoxicity of the compounds alone against drug-resistant cancer cells. The settings on record: human, MDA-435/LCC-MDR cells (drug-resistant cancer cells).
Method: (§1) The treatment consisted of concurrent exposure of MDA-435/LCC-MDR cells to paclitaxel in the presence or absence of the compounds reversing agent (1 μM) for 72 h in vitro. Assessment of cytotoxicity, i.e. cell growth inhibition, was determined according to the methods of Skehan, et al. as discussed in J. Nat.
(§2) Briefly, cells were plated between 400 and 1200 cells/well in 96 well plates and incubated at 37° C. for 15-18 h prior to drug addiction to allow attachment of cells. Compounds were solubilized in 100% DMSO and further diluted in RPMI-1640 containing 10 mM HEPES. After a 72 h incubation, 100 μl of ice-cold 50% TCA was added to each well and incubated for 1 h at 40° C. Plates were then washed 5 times with tap water to remove TCA, low-molecular weight metabolites and serum proteins. Suforhodamine B (SRB) (0.4%, 50 μl) was added to each well. Following a five minute incubation at room temperature, plates were rinsed 5 times with 0.1% acetic acid and air dried. Bound dye was solubilized with 10 mM Tris Base (pH 10.5) for 5 mm on a gyratory shaker. Optical density was measured at 570 nm.
Series [2] deals with drug-resistant cancer cells.
Method: as §1, §2
Series [3] concerns drug-resistant breast cancer cells MDA-435/LCC6-MDR. The experiment in a line: Cytostatic activity of paclitaxel alone or in combination with the compounds (SRB cell growth inhibition). Conditions: IC50 of paclitaxel alone or in presence of compound (reversing agent, 1 μM), MDA-435/LCC6-MDR cells, 72 h. The series is classed as cell-based. Here is the method:
The compounds were then evaluated in combination with paclitaxel for their cytostatic activity against the drug-resistant breast cancer cells MDA-435/LCC6-MDR.
In the experiments, the compounds were used in combination with paclitaxel, the paclitaxel being at a concentration of 0.3 μM.
Cancer Inst, 82, 1107, 1990.

A word on the IC50: it is the concentration at which inhibition is half-maximal. Take `COc1cc(C=CC(=O)c2c(OCC=C(C)C)ccc3c(=O)c(C)c(-c4ccccc4)oc23)cc(OC)c1OC` [VIB 173, 1-[3-Methyl-7-(3-Methylbut-2-Enyloxy)Flavon-8-yl]-3-(3,4,5-Tri-Methoxy)Phenyl-Propen-1-one]: the IC50 at 72 h in series [1] is over 1000 nM. Same read-out and setting: under `COc1cc(C=CC(=O)c2c(OCC=C(C)C)ccc3c(=O)c4ccccc4oc23)cc(OC)c1OC` [VIB 178, 1-[3-(3-Methylbut-2-Enyloxy)Xanthen-9-one-4-yl]-3-(3,4,5-Tri-Methoxyphenyl)-Propen-1-one] stands over 1000 nM. “1-[3-Methyl-7-(Prop-2-ynyloxy)flavon-8-yl]-Phenyl-Propen-1-one [VIB 167]”: in series [2], the IC50 is over 1000 nM. As to `CC(=O)O[C@H]1C(=O)[C@@]2(C)[C@H]([C@H](OC(=O)c3ccccc3)[C@]3(O)C[C@H](OC(=O)[C@H](O)[C@@H](NC(=O)c4ccccc4)c4ccccc4)C(C)=C1C3(C)C)[C@]1(OC(C)=O)CO[C@@H]1C[C@@H]2O` [Paclitaxel, paclitaxel], the IC50 in series [3] came out at 426 nM.

The values above are taken from US6620842B2, “Chalcones” (Indena SpA, priority 1999, dated 2003).
